These results are taken from patent EP1997826A2, “Synthetic ligands for immunoglobulins and pharmaceutical compositions containing them” (Tecnogen S.p.A., priority 2007, dated 2008).

Format in all cases: binding
Experiment [1] deals with immunoglobulins (IgG, IgM, IgA and IgE). The experiment in a line: affinity chromatography of raw human serum on peptide immobilized on CH-Sepharose-4B. The note with it: Western Blot, albumin not retained. How it is done: (§1) The peptide of formula (IB) prepared in Example 1 (10 mg) was dissolved in 5 ml of aqueous solution of sodium bicarbonate 0.1 M, NaCl 0.5 M, pH 8.5 and then added to 0.5 g of activated resin CH-Sepharose-4B (Amersham Biosciences, Uppsala, Sweden, Cat. No. 17-0490-01), a preactivated support for affinity chromatography for the direct coupling of peptides and proteins. The suspension was stirred for 24 hours and the extent of coupling was monitored by taking samples of the reaction mixture, at various times, followed by analysis by RP-HPLC.
(§2) Approximately 90-95% of the initial peptide is found to be bound covalently to the resin after 24 hours. The derivatized resin is incubated with 0.1 M Tris, pH 8.5 to block any sites of the resin that are still reactive, and is then packed in a glass column 100 x 0.6 cm I.D. with a variable piston (OMNIFIT, Cat. No. 006CC-06-10-FF).
(§3) For the purification of immunoglobulins from serum, the column was equilibrated with a buffer 50 mM Bis-Tris (Sigma, Cat. No. B9754), pH 6.5, to a flow of 1 ml/min, monitoring the eluent at 280 nm. Raw rabbit serum (Sigma, Cat, No. R9133) was loaded in the column and, after elution of the material that was not bound, the eluent was changed to acetic acid 0.1 M, pH 3.0, for elution of the adsorbed material. […]
A general note: In western blotting, separated proteins are transferred to a membrane and probed.

Experiment [2] deals with immunoglobulin fraction of the raw serum. Nature of the experiment: affinity chromatography of raw rabbit serum on peptide immobilized on CH-Sepharose-4B. The note with it: 50 mM Bis-Tris pH 6.5, elution with acetic acid 0.1 M pH 3.0, albumin eluted to the dead volume. The protocol:
as §1, §2, §3

The test system of experiment [3] is immunoglobulins (IgG, IgM, IgA and IgE). The experiment in a line: affinity chromatography of raw murine serum on peptide immobilized on CH-Sepharose-4B. The note with it: Western Blot, albumin not retained.

For the substance “(H-L-Cys(p-MeOBzl)-D-Arg-D-Thr-D-Tyr)4-L-Lys2-L-Lys-L-Lys-OH [Peptide IB]”, the “retention of immunoglobulins by the peptide column” value is “able to retain the immunoglobulins (IgG, IgM, IgA and IgE)” in experiment [1]; “able to retain the immunoglobulin fraction of the raw serum” in experiment [2]; “able to retain the immunoglobulins (IgG, IgM, IgA and IgE)” in experiment [3].
